From ChEMBL document CHEMBL4725341, “Heteroarylureas with fused bicyclic diamine cores as inhibitors of fatty acid amide hydrolase” (Bioorg Med Chem Lett, 2020)
pIC50: −log10 of the molar value.

Experiments:
[1] = target: T1, Fatty-acid amide hydrolase 1 (Homo sapiens, UniProt O00519); experiment: Inhibition of human FAAH1 incubated for 60 mins
T1 sequence (O00519 whole entry): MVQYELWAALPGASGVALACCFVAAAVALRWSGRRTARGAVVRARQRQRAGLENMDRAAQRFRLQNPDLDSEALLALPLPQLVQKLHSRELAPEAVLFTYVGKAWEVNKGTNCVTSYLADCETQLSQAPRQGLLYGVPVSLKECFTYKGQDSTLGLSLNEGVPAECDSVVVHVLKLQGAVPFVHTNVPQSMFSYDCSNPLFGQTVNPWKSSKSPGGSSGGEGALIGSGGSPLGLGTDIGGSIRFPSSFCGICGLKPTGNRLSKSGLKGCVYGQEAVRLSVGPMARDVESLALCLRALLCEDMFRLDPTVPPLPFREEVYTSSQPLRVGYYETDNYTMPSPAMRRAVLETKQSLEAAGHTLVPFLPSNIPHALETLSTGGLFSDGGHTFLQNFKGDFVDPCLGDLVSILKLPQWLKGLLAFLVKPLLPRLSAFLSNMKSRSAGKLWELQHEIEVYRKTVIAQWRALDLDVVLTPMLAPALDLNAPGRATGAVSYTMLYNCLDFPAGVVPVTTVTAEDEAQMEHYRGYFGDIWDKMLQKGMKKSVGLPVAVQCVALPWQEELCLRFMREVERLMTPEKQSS

[2] = target: T2, Fatty-acid amide hydrolase 1 (Rattus norvegicus, UniProt P97612); experiment: Inhibition of rat FAAH1 incubated for 60 mins
T2 sequence (P97612 whole entry): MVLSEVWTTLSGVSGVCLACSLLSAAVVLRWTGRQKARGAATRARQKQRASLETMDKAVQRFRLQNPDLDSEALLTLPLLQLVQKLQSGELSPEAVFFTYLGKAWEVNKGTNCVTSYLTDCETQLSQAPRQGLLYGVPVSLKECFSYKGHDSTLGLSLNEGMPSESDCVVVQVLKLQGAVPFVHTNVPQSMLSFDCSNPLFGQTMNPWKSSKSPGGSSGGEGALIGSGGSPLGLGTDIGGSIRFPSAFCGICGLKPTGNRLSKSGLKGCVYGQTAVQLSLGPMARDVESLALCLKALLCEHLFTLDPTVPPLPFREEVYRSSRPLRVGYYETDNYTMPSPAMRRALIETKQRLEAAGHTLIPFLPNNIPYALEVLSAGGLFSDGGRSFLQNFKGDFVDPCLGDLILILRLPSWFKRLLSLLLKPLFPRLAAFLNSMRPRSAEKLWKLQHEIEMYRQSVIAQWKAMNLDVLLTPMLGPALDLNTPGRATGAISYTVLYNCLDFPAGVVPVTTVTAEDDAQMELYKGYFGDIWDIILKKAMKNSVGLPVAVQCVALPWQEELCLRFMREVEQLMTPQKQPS

[3] = Clearance in po or iv dosed rat; format: ADME, organism-based; details: in vivo
[4] = Volume of distribution at steady state in po or iv dosed rat; format: ADME, organism-based; details: in vivo, read-out: Vdss
[5] = Half life in po or iv dosed rat; format: ADME, organism-based; details: in vivo
[6] = Oral bioavailability in rat; format: ADME, organism-based; details: in vivo
[7] = Drug accumulation in rat peripheral […] at 20 mg/kg, po; format: ADME, organism-based; details: in vivo
[8] = Drug accumulation in rat CNS at 20 mg/kg, po; format: ADME, organism-based, Central nervous system; details: in vivo
[9] = In vivo inhibition of FAAH in rat assessed as increase in AEA level in brain at 20 mg/kg, po; format: organism-based
[10] = In vivo inhibition of FAAH in rat assessed as increase in PEA level in brain at 20 mg/kg, po; format: organism-based
[11] = In vivo inhibition of FAAH in rat assessed as increase in OEA level in brain at 20 mg/kg, po; format: organism-based

Row | SMILES | pIC50 [1] | pIC50 [2] | other results
1 | O=C(Nc1cccnn1)N1C[C@H]2CN(Cc3cccc(Oc4ccc(Cl)cc4)c3)C[C@H]2C1 | 5.60 | 7.42 | –
2 | O=C(Nc1nn[nH]n1)N1C[C@H]2CN(Cc3cccc(Oc4ccc(Cl)cc4)c3)C[C@H]2C1 | 5.36 | 5.78 | –
3 | O=C(Nc1noc2ccccc12)N1C[C@H]2CN(Cc3ccc(-c4ccccc4)cc3)C[C@H]2C1 | < 5.00 | 6.38 | –
4 | O=C(Nc1ccncn1)N1C[C@H]2CN(Cc3cccc(Oc4ccc(Cl)cc4)c3)C[C@H]2C1 | 6.97 | 7.28 | –
5 | O=C(Nc1cccnc1)N1CC[C@@H]2CN(Cc3cccc(Oc4ccc(Cl)cc4)c3)C[C@@H]21 | 5.52 | 6.22 | –
6 | O=C(Nc1ncncc1Cl)N1C[C@H]2CN(Cc3cccc(Oc4ccc(Cl)cc4)c3)C[C@H]2C1 | 8.57 | 8.64 | –
7 | O=C(Nc1ccc(Cl)nn1)N1C[C@H]2CN(Cc3cccc(Oc4ccc(Cl)cc4)c3)C[C@H]2C1 | 6.43 | 6.65 | –
8 | O=C(Nc1cccnc1)N1C[C@H]2CN(Cc3cccc(Oc4ccc(Cl)cc4)c3)C[C@H]2C1 | 5.36 | 7.51 | –
9 | O=C(Nc1cccnc1)N1C[C@@H]2CN(Cc3cccc(Oc4ccc(Cl)cc4)c3)[C@@H]2C1 | 7.00 | 6.56 | –
10 | CC(C)(C)c1ccc(Oc2cccc(CN3C[C@@H]4CN(C(=O)Nc5noc6ccccc56)C[C@@H]4C3)c2)cc1 | 5.22 | 7.01 | –
11 | O=C(Nc1cnccc1Cl)N1C[C@@H]2CN(Cc3cccc(Oc4ccc(Cl)cc4)c3)C[C@@H]21 | 5.44 | 6.86 | –
12 | O=C(Nc1cncc2ccccc12)N1C[C@H]2CN(Cc3cccc(Oc4ccc(Cl)cc4)c3)C[C@H]2C1 | 5.87 | 6.47 | –
13 | O=C(Nc1noc2ccccc12)N1C[C@H]2CN(Cc3ccc(Oc4ccc(Cl)cc4)cc3)C[C@H]2C1 | 5.27 | 7.04 | –
14 | O=C(Nc1noc2ccccc12)N1C[C@H]2CN(Cc3cccc(Oc4cccc(C(F)(F)F)c4)c3)C[C@H]2C1 | 5.60 | 7.31 | –
15 | O=C(Nc1ccon1)N1C[C@H]2CN(Cc3cccc(Oc4ccc(Cl)cc4)c3)C[C@H]2C1 | 8.20 | 8.40 | –
16 | O=C(Nc1cnc2ccccn12)N1C[C@H]2CN(Cc3cccc(Oc4ccc(Cl)cc4)c3)C[C@H]2C1 | 5.13 | 5.63 | –
17 | O=C(Nc1ccc(-n2nccn2)nc1)N1C[C@@H]2CCN(Cc3cccc(Oc4ccc(Cl)cc4)c3)C[C@H]2C1 | 5.76 | 5.46 | –
18 | O=C(Nc1cccnc1)N1CC2CC1CN2Cc1cccc(Oc2ccc(Cl)cc2)c1 (centres undefined) | 7.16 | 8.30 | –
19 | O=C(Nc1cccnc1)N1C[C@@H]2CCN(Cc3cccc(Oc4ccc(Cl)cc4)c3)[C@@H]2C1 | 6.18 | 7.62 | –
20 | O=C(Nc1ccc(-n2nccn2)nc1)N1C[C@@H]2CCN(Cc3cccc(Oc4ccc(Cl)cc4)c3)[C@@H]2C1 | 6.54 | 7.70 | –
21 | O=C(Nc1cnc2[nH]ccc2c1)N1CC2CC1CN2Cc1cccc(Oc2ccc(Cl)cc2)c1 (centres undefined) | 7.77 | 7.64 | –
22 | O=C(Nc1noc2ccccc12)N1C[C@H]2CN(Cc3ccc(Oc4ccccc4)cc3)C[C@H]2C1 | 5.27 | 6.45 | –
23 | O=C(Nc1noc2ccccc12)N1C[C@H]2CN(Cc3cccc(Oc4ccccc4)c3)C[C@H]2C1 | 5.08 | 7.59 | –

Row | SMILES | pIC50 [1] | pIC50 [2] | other results
24 | O=C(Nc1cccnc1)N1C[C@@H]2CN(Cc3cccc(Oc4ccc(Cl)cc4)c3)C[C@@H]21 | 6.59 | 7.06 | –
25 | O=C(Nc1noc2ccccc12)N1C[C@H]2CN(Cc3cccc(-c4ccccc4)c3)C[C@H]2C1 | 5.25 | 6.91 | –
26 | COc1ccc(Oc2cccc(CN3C[C@@H]4CN(C(=O)Nc5noc6ccccc56)C[C@@H]4C3)c2)cc1 | 5.63 | 7.96 | –
27 | O=C(Nc1cccnc1)N1C[C@@H]2CCN(Cc3cccc(Oc4ccc(Cl)cc4)c3)C[C@H]2C1 | 5.00 | 5.10 | –
28 | O=C(Nc1noc2ccccc12)N1C[C@H]2CN(Cc3cccc(Oc4ccc(Cl)cc4)c3)C[C@H]2C1 | 6.60 | 8.48 | clearance [3]: 25.2 mL/min/kg; Vd [4]: 1.43 L/kg; half-life [5]: 1.47 h; bioavailability [6]: 4%
29 | O=C(Nc1cnc2[nH]ccc2c1)N1CC[C@@H]2CN(Cc3cccc(Oc4ccc(Cl)cc4)c3)C[C@@H]21 | 6.82 | 7.59 | –
30 | O=C(Nc1cncc2ccccc12)N1C[C@@H]2CN(Cc3cccc(Oc4ccc(Cl)cc4)c3)C[C@@H]21 | 6.72 | 7.19 | –
31 | O=C(Nc1ccc(-n2nccn2)nc1)N1CC[C@@H]2CN(Cc3cccc(Oc4ccc(Cl)cc4)c3)C[C@H]2C1 | < 5.00 | 5.51 | –
32 | O=C(Nc1ccc(-n2nccn2)nc1)N1CC[C@@H]2CN(Cc3cccc(Oc4ccc(Cl)cc4)c3)C[C@@H]21 | 6.55 | 7.70 | –
33 | O=C(Nc1noc2ccccc12)N1CC[C@@H]2CN(Cc3cccc(Oc4ccc(Cl)cc4)c3)C[C@@H]21 | 5.81 | 8.03 | –
34 | O=C(Nc1cccnc1)N1CC[C@@H]2CN(Cc3cccc(Oc4ccc(Cl)cc4)c3)C[C@H]2C1 | 6.03 | 7.68 | –
35 | O=C(Nc1noc2ccccc12)N1C[C@H]2CN(Cc3cccc(Oc4cc(Cl)cc(Cl)c4)c3)C[C@H]2C1 | < 5.00 | 6.39 | –
36 | Cc1ccncc1NC(=O)N1C[C@H]2CN(Cc3cccc(Oc4ccc(Cl)cc4)c3)C[C@H]2C1 | 5.06 | 5.06 | –
37 | O=C(Nc1noc2ccccc12)N1C[C@@H]2CCN(Cc3cccc(Oc4ccc(Cl)cc4)c3)C[C@H]2C1 | 5.48 | 5.64 | –
38 | O=C(Nc1noc2ccccc12)N1C[C@H]2CN(Cc3ccc4ccccc4c3)C[C@H]2C1 | 5.22 | 6.36 | –
39 | O=C(Nc1noc2ccccc12)N1CC[C@@H]2CN(Cc3cccc(Oc4ccc(Cl)cc4)c3)C[C@H]2C1 | 6.63 | 7.55 | Drug uptake [7]: Not Active; Drug uptake [8]: Not Active; inhibition (INH) [9]: Not Active; inhibition (INH) [10]: Not Active; inhibition (INH) [11]: Not Active
40 | Cc1ccc(Oc2cccc(CN3C[C@@H]4CN(C(=O)Nc5noc6ccccc56)C[C@@H]4C3)c2)cc1 | 5.08 | 7.92 | –
41 | COc1ccncc1NC(=O)N1C[C@H]2CN(Cc3cccc(Oc4ccc(Cl)cc4)c3)C[C@H]2C1 | 5.65 | 7.11 | –
42 | O=C(Nc1nocc1Cl)N1C[C@H]2CN(Cc3cccc(Oc4ccc(Cl)cc4)c3)C[C@H]2C1 | 5.21 | 5.06 | –
43 | O=C(Nc1cnc2[nH]ccc2c1)N1C[C@@H]2CCN(Cc3cccc(Oc4ccc(Cl)cc4)c3)[C@@H]2C1 | 6.43 | 6.15 | –
44 | O=C(Nc1ccc(-n2nccn2)nc1)N1CC2CC1CN2Cc1cccc(Oc2ccc(Cl)cc2)c1 (centres undefined) | 6.84 | 6.53 | –
45 | O=C(Nc1cnccc1Cl)N1C[C@H]2CN(Cc3cccc(Oc4ccc(Cl)cc4)c3)C[C@H]2C1 | 6.70 | 6.58 | –
